Legend:
[1] = tested on: gout arthritis induced by intra-articular uric acid; test: Pain Induced Functional Impairment model in the Rat (PIFIR), analgesic activity; assay type: in vivo, male Wistar rats; conditions: oral, single doses, rats with gout arthritis, FIG. 1
Method: The experiments were carried out using male Wistar rats having a body weight between 180 and 200 g. […] The number of test animals was taken to the minimal (6 animals for each experimental aspect). Animals were kept in a room with light/darkness cycles. Rats were fastened twelve hours prior the beginning of experiments, leaving only free access to water. All the experiments were run during the light phase, using the animals only once.
The evaluation of analgesic effects was carried out using the Pain Induced Functional Impairment model in the Rat (PIFIR) model. Animals were anesthetized in a glass desiccator saturated with ether vapors. Gout arthritis was induced, upon application of a intra-articular injection of 0.05 ml of uric acid suspended in mineral oil, in the right-side hind leg, exactly in the femoral-tibio-patellar joint. […] Variable measured was contact time of each hind leg of every rat in the cylinder.
Rats were administered with each of the compounds orally. […] This period of time (2.5 hours after administration of uric acid) was considered as time “0”, in order to administer in this point of time the antinociceptive or analgesic treatment and the temporary course of each treatment were determined during the following 4 continuous hours. […]
Data are expressed as Percentage of Functionality Index (FI %). […]

[2] = tested on: Interleukin-1 beta production in human monocytes; conditions: human monocytes in vitro (Berdah et al., 1993); cited from earlier work
[3] = tested on: cyclooxygenase (COX) from kidney or platelet; conditions: from kidney or platelet (LaVilla et al., 1989); cited from earlier work
[4] = clinical trials, administered to 2 years; cited from earlier work

SMILES | TC efficacy (analgesic effect, FI % temporal course) [1] | Interleukin-1 beta production [2] | activity of cyclooxygenase (COX) [3] | safety on long-term administration [4]
CC(=O)Oc1cccc2c1C(=O)c1c(OC(C)=O)cc(C(=O)O)cc1C2=O [Diacereine, 1,8-diacetoxy-3-carboxy-anthraquinone] | unable to generate analgesic effects | inhibit | does not disrupt | without having safety problems
O=C(O)c1cc(O)c2c(c1)C(=O)c1cccc(O)c1C2=O [reine, Reine] |  | inhibit |  | 
